Target: T1, Interleukin-1 receptor-associated kinase 4 (Homo sapiens, UniProt Q9NWZ3)
T1 sequence (Q9NWZ3 whole entry): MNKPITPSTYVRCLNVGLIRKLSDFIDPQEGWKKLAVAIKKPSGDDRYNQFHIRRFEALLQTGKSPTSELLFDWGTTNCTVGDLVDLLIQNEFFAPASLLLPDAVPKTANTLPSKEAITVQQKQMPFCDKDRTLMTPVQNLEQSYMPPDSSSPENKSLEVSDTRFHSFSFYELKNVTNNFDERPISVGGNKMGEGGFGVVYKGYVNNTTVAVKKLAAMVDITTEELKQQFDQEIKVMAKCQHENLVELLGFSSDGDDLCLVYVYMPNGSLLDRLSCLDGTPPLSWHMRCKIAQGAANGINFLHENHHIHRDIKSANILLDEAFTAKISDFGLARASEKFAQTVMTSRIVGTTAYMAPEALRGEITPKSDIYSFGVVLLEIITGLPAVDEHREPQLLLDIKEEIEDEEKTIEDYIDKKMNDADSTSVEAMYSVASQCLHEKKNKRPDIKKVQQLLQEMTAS
Test: Screening Assay Against IRAK4 with ATP
Protocol: Then prepare compounds for testing: Dilute the compound to 50× of the final desired highest inhibitor concentration in reaction by 100% DMSO. […] Transfer 10 μL of the compound from the source plate to a new 96-well plate (intermediate plate) and add 90 μL of Ix kinase buffer. Shake the mixture on the intermediate plate for 10 min. Transfer 5 μL of each well from the 96-well intermediate plate to a 384-well plate in duplicates. Add 10 μL of 2.5× enzyme solution to each well of the 384-well assay plate and incubate at room temperature for 10 min. Add 10 μL, of 2.5×FAM-labeled peptide and ATP solution and incubate at 28° C. for a period of time.

For `Cn1cc(-c2cccc(NC(=O)c3cc4oc(N5CCOCC5)nc4nc3N3CCOCC3)n2)cn1` [US20250074919, Example A2], the IC50 was 45 nM.
